# Data reported in article PMC10906223 (JCI Insight, 2024).
# Where “and” joins values, the source holds several entries; their conditions need not be identical. Identical values can stand only once. Entries after “also recorded” stand apart in the source; their conditions may differ.
# How the values were obtained:
# [1] = molecular target: T1, EphA4 receptor (Mus musculus, UniProt Q03137); assay: ELISA: competition between WCDD301 and Ephrin-A5 Fc for binding to EphA4; conditions: for Bound Ephrin (WCDD301, 0.01 µM) / Bound Ephrin (WCDD301, 0.1 µM) / Bound Ephrin (WCDD301, 1 µM): Figure 1E; for Bound Ephrin-A5 (ELISA signal) / AUC of competition curve: Figure 1D; for AUC of competition curve: EphA4 3 μg/mL, mean ± SD
# T1 construct: purchased R&D Systems 641-A4-200
# Description: Wells of the protein A–coated microplate (Pierce, catalog 15132) were washed using 200 μL of binding buffer (PBS supplemented by 0.01% Tween 20). Recombinant mouse EphA4 Fc chimera protein (R&D Systems, catalog 641-A4-200) was reconstituted in 1× PBS (Genesee, catalog 25-507XB, pH 7.2 ± 0.1), diluted to 3 μg/mL using binding buffer, dispensed (100 μL) in each well, and rocked on a belly dancer shaker (3 hours at room temperature, RT). Following 3 washes in the binding buffer, blocking was done using blocking buffer (5% BSA in binding buffer) for 3 hours at RT. Then, after 5 washes, the reconstituted recombinant mouse Ephrin-A5 Fc (R&D Systems, catalog 7396-EA-050) was added (100 μL) into each well and rocked for 2.5 hours on the shaker (Ephrin-A5 Fc concentrations were used as described in the Results section). After 7 washes using binding buffer, alkaline phosphatase–conjugated antibody against Ephrin-A5 was diluted (1:1,000) in the binding buffer plus 2% BSA, added to each well, and incubated at 4°C, overnight. Conjugation of the anti-EFNA5 antibody (Abnova, catalog H00001946-M02; 0.5 mg/mL; target sequence 114–203) was done using Abcam conjugation kit (catalog ab102850) based on the manufacturer’s instruction. After washing 7 times, p-nitrophenyl phosphate tablet (MilliporeSigma, catalog N1891) was reconstituted in 5 mL of PBS and added to each well (100 μL). Following 1 hour shaking at RT in the dark, reaction was stopped by adding 100 μL of 3N NaOH. OD was read at 405 nm within 5 minutes using the microplate reader (Agilent BioTek Cytation 5).
# We took following the approaches to assay competition between Ephrin-A5 and WCDD301 for binding to the EphA4 receptor. Wells of the microplate were coated by a fixed level of EphA4 Fc (3.5 pmol/well), and competition experiments with Ephrin-A5 and WCDD301 were performed as listed in Supplemental Tables 3 and 4. We determined the KD value for each condition by means of Michaelis-Menten best fit analysis in GraphPad Prism software version 4. To control for potential interaction between WCDD301 and Ephrin-A5 Fc, we coated wells of a microplate using Ephrin-A5 Fc and then incubated them with or without WCDD301 (0.2 μM).
# [2] = tested on: diabetic NOD mice; assay: Blood glucose in diabetic NOD mice, once-daily oral WCDD301 in SAIB-Agar; assay type: in vivo, mouse; design: Blood glucose: unit: mg/dL; conditions: for Blood glucose: oral 7.5 mg/kg once daily, per mouse, Figure 6A, 7.5 mg/kg
# Description: For the polygenic model for T1D (the Jackson Laboratory), 10 cohorts of independent NOD/shiLTJ mice (each 10, equal numbers of females and males) were purchased at 7–9 weeks old. Blood glucose levels were monitored twice a week using a glucometer (Glucocard Vital) to find those mice at risk of diabetes. Diabetes was confirmed when the blood glucose levels remained at 200–250 mg/dL for 3 consecutive days. This profile of the blood glucose level is referred to as moderate hyperglycemia.
# We prepared sustained time-release pearls for oral administration in the mouse models. To this end, we combined FDA-approved excipients of Eastman BioSustane SAIB NF (product code: 41271-00, sample distribution from Eastman Company, Kingsport, Tennessee, USA; provided by Phillip Cook) and Agar (Lamda Biotech, catalog C110) at the ratio of 1:1.45 (w/w). We also prepared another type of sustained time-release pearl by mixing SAIB, Agar, and L (-) malic acid (MilliporeSigma, catalog 202-601-5) at the ratio of 1:1.4:0.2 (w/w/w). A homogenous paste mixture was prepared, and pearls were formed with 50–60 mg weight and approximately 2 mm diameter by pinching off the mixture and manually rolling.
# We preweighed WCDD301 into microfuge tubes and reconstituted it using deionized water. Using a 10 μL pipette tip, we placed the calculated dose of WCDD301 (at the volume range of 1–1.5 μL) within the center of pearls. WCDD301 was placed into pearls 30–45 minutes before administration. For oral administration of pearls, we designed an applicator using a disposable plastic transfer pipette and syringe plunger lubricated with olive oil. Food intake and body weight in each experimental group (diabetic WCDD301-treated, diabetic placebo-treated, and nondiabetic placebo-treated NOD mice) were monitored daily for 4 weeks. Urine glucose was measured from individually caged NOD mice (nondiabetic placebo treated n = 2, diabetic placebo treated n = 2, and diabetic WCDD301 treated n = 4, 21–23 weeks old) with metabolic cages. Urine glucose was monitored every 24 hours for 10 days by semiquantitative measurements (P-STICKS, Millpledge Veterinary).
# We applied the following therapeutic regimens in the fed state for oral dosing of pearls containing WCDD301. The therapeutic regimen for diabetic NOD mice with moderate hyperglycemia (n = 6–9; 6 females/3 males) or nondiabetic ones with blood glucose levels of < 140 mg/dL (females, n = 5) was dose 7.5 mg/kg, dosage once a day, and excipient SAIB-Agar, 50–60 mg. The therapeutic regimen for STZ-induced diabetic mice with early severe hyperglycemia (n = 3, placebo group; n = 4 treatment group, females) was dose 10 mg/kg, dosage once a day, and excipient SAIB-Agar-malic acid, 50–60 mg.
# T1 sequence (Q03137 with tags, fused parts or gaps limits assumed): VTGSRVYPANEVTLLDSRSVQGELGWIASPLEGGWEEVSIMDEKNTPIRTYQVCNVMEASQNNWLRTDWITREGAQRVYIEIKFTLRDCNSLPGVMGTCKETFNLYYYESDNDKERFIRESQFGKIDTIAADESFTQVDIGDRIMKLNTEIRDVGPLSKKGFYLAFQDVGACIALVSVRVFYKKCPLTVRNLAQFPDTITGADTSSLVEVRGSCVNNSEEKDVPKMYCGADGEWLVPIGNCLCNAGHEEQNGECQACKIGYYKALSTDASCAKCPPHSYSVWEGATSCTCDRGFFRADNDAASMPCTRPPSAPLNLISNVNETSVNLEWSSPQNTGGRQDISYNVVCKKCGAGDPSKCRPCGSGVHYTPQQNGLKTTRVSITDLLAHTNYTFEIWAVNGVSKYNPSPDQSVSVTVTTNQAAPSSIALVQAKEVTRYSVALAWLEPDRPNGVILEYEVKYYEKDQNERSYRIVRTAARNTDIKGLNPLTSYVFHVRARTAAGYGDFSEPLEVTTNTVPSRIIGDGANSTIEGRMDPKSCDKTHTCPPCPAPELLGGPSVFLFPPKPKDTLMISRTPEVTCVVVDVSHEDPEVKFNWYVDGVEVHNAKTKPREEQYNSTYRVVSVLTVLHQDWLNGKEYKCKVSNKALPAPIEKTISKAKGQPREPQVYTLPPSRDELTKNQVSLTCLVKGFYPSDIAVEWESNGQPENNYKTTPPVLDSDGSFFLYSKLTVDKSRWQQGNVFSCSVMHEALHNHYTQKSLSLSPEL
structure (smiles),measurement,setting,value
"CC(=O)OCC(N)(COC(C)=O)COC(C)=O [WCDD301, 2-(acetoxymethyl)-2-aminopropane-1,3-diyl diacetate]",Competition with Ephrin-A5 for EphA4,[1]; AUC analysis,"competes with the natural ligand, Ephrin-A5"
same,"Bound Ephrin (WCDD301, 0.01 µM)",[1]; Ephrin-A5 Fc 2 nM,0.051 and 0.05 and 0.052
same,"Bound Ephrin (WCDD301, 0.1 µM)",[1]; Ephrin-A5 Fc 2 nM,0.05 and 0.06
same,"Bound Ephrin (WCDD301, 1 µM)",[1]; Ephrin-A5 Fc 2 nM,0.03 and 0.04
same,"Bound Ephrin (WCDD301, 0.01 µM)",[1]; Ephrin-A5 Fc 4 nM,0.061 and 0.07 and 0.064
same,"Bound Ephrin (WCDD301, 0.1 µM)",[1]; Ephrin-A5 Fc 4 nM,0.062 and 0.064 and 0.07
same,"Bound Ephrin (WCDD301, 1 µM)",[1]; Ephrin-A5 Fc 4 nM,0.04 and 0.05
same,"Bound Ephrin (WCDD301, 0.01 µM)",[1]; Ephrin-A5 Fc 8 nM,0.142 and 0.122 and 0.156
same,"Bound Ephrin (WCDD301, 0.1 µM)",[1]; Ephrin-A5 Fc 8 nM,0.119 and 0.121 and 0.098
same,"Bound Ephrin (WCDD301, 1 µM)",[1]; Ephrin-A5 Fc 8 nM,0.1 and 0.104 and 0.11
same,"Bound Ephrin (WCDD301, 0.01 µM)",[1]; Ephrin-A5 Fc 16 nM,0.18 and 0.189 and 0.209
same,"Bound Ephrin (WCDD301, 0.1 µM)",[1]; Ephrin-A5 Fc 16 nM,0.141 and 0.137 and 0.119
same,"Bound Ephrin (WCDD301, 1 µM)",[1]; Ephrin-A5 Fc 16 nM,0.145 and 0.115 and 0.125
same,"Bound Ephrin (WCDD301, 0.01 µM)",[1]; Ephrin-A5 Fc 32 nM,0.265 and 0.289 and 0.221
same,"Bound Ephrin (WCDD301, 0.1 µM)",[1]; Ephrin-A5 Fc 32 nM,0.21 and 0.269 and 0.243
same,"Bound Ephrin (WCDD301, 1 µM)",[1]; Ephrin-A5 Fc 32 nM,0.234 and 0.189 and 0.171
same,"Bound Ephrin (WCDD301, 0.01 µM)",[1]; Ephrin-A5 Fc 64 nM,0.321 and 0.34 and 0.365
same,"Bound Ephrin (WCDD301, 0.1 µM)",[1]; Ephrin-A5 Fc 64 nM,0.301 and 0.29 and 0.27
same,"Bound Ephrin (WCDD301, 1 µM)",[1]; Ephrin-A5 Fc 64 nM,0.28 and 0.27 and 0.26
same,Bound Ephrin-A5 (ELISA signal),"[1]; WCDD301 0.0625 µM, Ephrin-A5 (2 nM)",0.1 and 0.12
same,Bound Ephrin-A5 (ELISA signal),"[1]; WCDD301 0.0625 µM, Ephrin-A5 (4 nM), c4-c6",0.217 and 0.196 and 0.19
same,Bound Ephrin-A5 (ELISA signal),"[1]; WCDD301 0.0625 µM, Ephrin-A5 (4 nM), third group c7-c9",0.23 and 0.236 and 0.246
same,Bound Ephrin-A5 (ELISA signal),"[1]; WCDD301 0.0625 µM, Ephrin-A5 (8 nM)",0.237 and 0.247 and 0.265
same,Bound Ephrin-A5 (ELISA signal),"[1]; WCDD301 0.125 µM, Ephrin-A5 (2 nM)",0.086 and 0.108 and 0.1
same,Bound Ephrin-A5 (ELISA signal),"[1]; WCDD301 0.125 µM, Ephrin-A5 (4 nM), c4-c6",0.202 and 0.18 and 0.187
same,Bound Ephrin-A5 (ELISA signal),"[1]; WCDD301 0.125 µM, Ephrin-A5 (4 nM), third group c7-c9",0.208 and 0.216
same,Bound Ephrin-A5 (ELISA signal),"[1]; WCDD301 0.125 µM, Ephrin-A5 (8 nM)",0.236 and 0.233 and 0.234
same,Bound Ephrin-A5 (ELISA signal),"[1]; WCDD301 0.25 µM, Ephrin-A5 (2 nM)",0.072 and 0.073 and 0.082
same,Bound Ephrin-A5 (ELISA signal),"[1]; WCDD301 0.25 µM, Ephrin-A5 (4 nM), c4-c6",0.148 and 0.141 and 0.169
same,Bound Ephrin-A5 (ELISA signal),"[1]; WCDD301 0.25 µM, Ephrin-A5 (4 nM), third group c7-c9",0.201 and 0.205 and 0.203
same,Bound Ephrin-A5 (ELISA signal),"[1]; WCDD301 0.25 µM, Ephrin-A5 (8 nM)",0.222 and 0.22 and 0.212
same,AUC of competition curve,[1]; at 2 nM,0.025 ± 0.0011 AU
same,AUC of competition curve,[1]; at 4 nM,0.0469 ± 0.0014 AU
same,AUC of competition curve,[1]; at 6 nM,0.0554 ± 0.0006 AU
same,AUC of competition curve,[1]; at 8 nM,0.0617 ± 0.0011 AU
same,Blood glucose (Supplemental Figure 6A),[2]; 48h later (after stopping dosing),350 mg/dL and 370 mg/dL and 330 mg/dL
same,Blood glucose (Supplemental Figure 6A),[2]; A week after resuming dosing,119 mg/dL and 124 mg/dL and 131 mg/dL
same,Blood glucose (Supplemental Figure 6A),[2]; Stoping dosing,119 mg/dL and 109 mg/dL and 124 mg/dL
same,Blood glucose (Supplemental Figure 6A),[2]; Week 1,184 mg/dL and 200 mg/dL and 210 mg/dL
same,Blood glucose (Supplemental Figure 6A),[2]; Week 2,122 mg/dL and 116 mg/dL and 109 mg/dL
same,Blood glucose (Supplemental Figure 6A),[2]; Week 3,132 mg/dL and 147 mg/dL and 115 mg/dL
same,Effect on blood glucose,"[2]; diabetic NOD mice, moderate hyperglycemia (200–250 mg/dL), once-daily oral, SAIB-Agar",significantly reduced blood glucose levels within a week of administration; also recorded: normalized blood glucose level during an 11-week follow-up
same,Time to normalized blood glucose,"[2]; diabetic NOD mice, SAIB-Agar formulation",≤ 2 weeks
same,Blood glucose,"[2]; diabetic NOD mice, Week 1, before treatment 230-251, mg/dL",165 and 170 and 163 and 184 and 200 and 210 and 198 and 180 and 175
same,Blood glucose,"[2]; diabetic NOD mice, Week 2",114 and 125 and 128 and 122 and 116 and 109 and 115
same,Blood glucose,"[2]; diabetic NOD mice, Week 3",120 and 115 and 116 and 132 and 147 and 109 and 110
same,Blood glucose,"[2]; diabetic NOD mice, Week 4",119 and 124 and 108 and 112 and 115 and 110
same,Blood glucose,"[2]; diabetic NOD mice, Week 5",109 and 105 and 115 and 118 and 117
same,Blood glucose,"[2]; diabetic NOD mice, Week 6",105 and 107 and 104 and 120 and 112 and 118
same,Blood glucose,"[2]; diabetic NOD mice, Week 7",109 and 105 and 106 and 110 and 118 and 116
same,Blood glucose,"[2]; diabetic NOD mice, Week 8",109 and 107 and 110 and 118 and 116
same,Blood glucose,"[2]; diabetic NOD mice, Week 9",114 and 109 and 120 and 105 and 118 and 98
same,Blood glucose,"[2]; diabetic NOD mice, Week 10",119 and 114 and 117 and 102 and 105 and 108
same,Blood glucose,"[2]; diabetic NOD mice, Week 11",109 and 112 and 116 and 114 and 108 and 110
same,Blood glucose after discontinuing for 48 hours and resuming dosing,"[2]; treated diabetic NOD mice, Supplemental Figure 6A",resulted in hyperglycemia; also recorded: Euglycemia returned after resuming the WCDD301 dosing
